Reference: US20260217691A1, “FOXM1 INHIBITORS AND THEIR USE IN TREATING CANCERS” (THE BOARD OF TRUSTEES OF THE UNIVERSITY OF ILLINOIS, priority 2022, published 2026)

Tests used:
FOXM1 [1] = biological target: T1, FOXM1 (Homo sapiens, UniProt Q08050); assay: FOXM1 protein levels by immunoblotting in solid cancer cell lines
T1 sequence (Q08050 1-763): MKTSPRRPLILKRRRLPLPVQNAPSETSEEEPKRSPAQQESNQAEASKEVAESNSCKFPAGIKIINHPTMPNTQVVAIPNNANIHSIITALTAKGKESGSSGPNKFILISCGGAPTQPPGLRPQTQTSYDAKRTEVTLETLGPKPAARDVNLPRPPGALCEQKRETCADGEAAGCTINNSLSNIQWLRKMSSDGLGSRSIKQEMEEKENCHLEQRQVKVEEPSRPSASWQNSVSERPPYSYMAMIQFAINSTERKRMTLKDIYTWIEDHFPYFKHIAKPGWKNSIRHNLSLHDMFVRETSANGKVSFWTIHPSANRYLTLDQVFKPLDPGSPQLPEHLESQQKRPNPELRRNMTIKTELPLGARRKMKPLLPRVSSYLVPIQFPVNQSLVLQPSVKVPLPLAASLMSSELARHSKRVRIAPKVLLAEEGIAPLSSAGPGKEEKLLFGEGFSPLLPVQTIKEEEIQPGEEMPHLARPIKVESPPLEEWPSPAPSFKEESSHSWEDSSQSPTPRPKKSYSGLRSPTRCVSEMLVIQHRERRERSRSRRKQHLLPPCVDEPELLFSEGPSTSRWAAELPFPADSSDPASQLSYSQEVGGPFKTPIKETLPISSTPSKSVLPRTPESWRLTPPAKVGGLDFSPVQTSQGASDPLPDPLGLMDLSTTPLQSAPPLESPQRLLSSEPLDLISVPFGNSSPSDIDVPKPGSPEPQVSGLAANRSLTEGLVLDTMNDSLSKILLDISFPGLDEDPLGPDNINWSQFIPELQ
Method: Cell culture: Human cell lines LNCaP and 22Rv1 (human prostate carcinoma), OVCAR8 and ES-2 (High-grade serous ovarian cancer, HGSOC), HCT-116 and HCT-FET (human colorectal carcinoma), HCC-1143 (triple negative breast cancer (TNBC), TAMR (Tamoxifen resistant MCF7) human breast cancer, were provided from various investigators. LNCaP and 22Rv1 cell lines were cultured in RPMI-1640 with 2 mM L-Glutamine (Gibco; Thermo Fisher Scientific, Waltham, MA, USA). HCC-1143 cell lines were cultured in Iscove's Modified Dulbecco Medium (IMDM) with 2 mM L-Glutamine (Gibco; Thermo Fisher Scientific). OVCAR-8, ES-2, HCT-116, and HCT-FET cell lines were cultured in Dulbecco's Modified Eagle Medium (DMEM) with 4.5 g/L glucose and 4 mM L-Glutamine (Gibco; Thermo Fisher Scientific). For all cell lines, the growth media was supplemented with 10% Foetal Bovine Serum (FBS), penicillin (100 U/mL), and 100 μg/mL streptomycin (Gibco; Thermo Fisher Scientific). TAMR cells were routinely cultured in DMEM/F12 medium without phenol red (Gibco; Thermo Fisher Scientific), containing 1% charcoal-striped FBS, 2.5 mM L-Glutamine (Thermo Fisher Scientific), 6 ng/mL insulin (Millipore Sigma) and 50 nM 4-hydroxytamoxifen (4-OHT; Millipore Sigma). All cell lines were grown and maintained at 37° C. in a humidified incubator with 5% CO2. Sub-confluent cultures (70-80%) were split 1:5 using 0.25% Trypsin/EDTA (Millipore Sigma).
Drug treatment of cultured cells: After harvesting, cells were counted in presence of Trypan Blue (Thermo Fisher Scientific) and seeded onto tissue culture plates to achieve ~50% confluency. The next day, treatment of cells was performed by aspirating the nonadherent cells and growth medium and replacing it with the fresh one containing selected concentrations of drugs. For Tamoxifen based studies, the nonadherent cells and growth media was aspirated and replaced with the DMEM supplemented with 4.5 g/L glucose and 4 mM L-Glutamine, 10% FBS, penicillin (100 U/mL), 100 μg/mL streptomycin, 10 nM estrogen, and selected concentrations of drugs. […] Post-treatment at selected times, the cells were harvested, washed with ice-cold PBS and used for protein or RNA purification as described below.
Protein immunoblotting: Total protein was extracted using ice-cold radio-immunoprecipitation assay (RIPA) buffer (Millipore Sigma) supplemented with Halt protease- and phosphatise-inhibitor cocktails (Fisher Scientific), 2 mM sodium orthovanadate (New England Biolabs, Inc., USA), and 5 mM sodium fluoride (Millipore Sigma) according to the manufacturer's protocol. Protein content in each sample was estimated using Bio-Rad Protein Assay (Bio-Rad, USA). Equal amounts of protein (20-30 μg) were separated on hand-cast SDS/PAGE (6-12%) mini-protein gels and transferred to 0.2 μm Immobilon-Psq polyvinylidene difluoride (PVDF) transfer membrane (Millipore Sigma). Membranes were blocked with 4% bovine serum albumin (BSA; Millipore Sigma) in TRIS-buffered saline (TBS) with 0.1% Tween-20 (TBS-T, Thermo Fisher Scientific) and probed overnight at 4° C. with the primary antibodies (FOXM1, Cell Signaling Technology (CST), Inc., USA; Cleaved Caspase-3, CST; β-actin, Thermo Fisher Scientific) diluted according to the manufacturer's protocol. […] After incubating membranes with the secondary antibodies, the membranes were then washed three times for 10 min each with TBST. Protein bands were developed using SuperSignal™ West Pico PLUS Chemiluminescent Substrate (Thermo Fisher Scientific) and detected using ChemiDoc Imaging System (Bio-Rad).

[2] = test system: HCT-116 and HCT-FET cells; assay: Chemosensitization (caspase-3 cleavage) of colorectal cancer cells to 5′FU; assay type: cell-based, human
Method: FIG. 16. […] (A) Ovarian cancer (OVCAR-8 and ES-2) cells were treated with indicated concentrations of Doxorubicin (Doxo) alone or in combination with STL001 for 24 hrs. […] (C) colon cancer (HCT-116 and FET) cells were treated with indicated concentrations of 5′FU alone or in combination with STL001 for 24 hrs.

FOXM1 [3] = biological target: T1, FOXM1; assay: Immunohistochemistry for nuclear FOXM1 in primary AML samples treated ex vivo; assay type: cell-based; parameters: Total protein samples obtain from treated cells were analyzed for FOXM1 protein levels via immunoblotting; endogenous in cells; host or cells: KG-1, HL-60, K562, THP-1 leukemia cell lines; conditions: primary AML samples (n=4), 24 h, 43% for DMSO, p=0.06
Method: FIGS. 13A-13H STL001 is a novel FOXM1 inhibitor that sensitizes leukemia cells to standard cytotoxic and bcl2 inhibitor therapies. FIG. 13A AML cell line KG-1 treated with precursor compound STL427944. FIG. 3B AML cell lines KG-1, HL-60, and K562 were treated with increasing concentrations of STL001 for 24 h. Total protein samples obtained from treated cells were analyzed for FOXM1 protein levels using immunoblotting; β-actin was used as the internal loading control. FIG. 13C KG-1, HL-60, and K562 cells were treated with indicated concentrations of venetoclax and STL001 alone or in combination for 24 h. FIG. 13D KG-1, HL-60, and K562 cells were treated with indicated concentrations of cytarabine and STL001 alone or in combination for 24 h. […] Total protein samples obtained from treated cells were analyzed for FOXM1 protein levels via immunoblotting; β-actin was used as an internal loading control. […] Slides were scanned on an Aperio AT2 brightfield scanner and images were analyzed using HALO 2.0 software. […]
In addition, primary AML samples (n=4) were treated ex vivo with STL001 and slides were scanned on an Aperio AT2 brightfield scanner and images were analyzed using HALO 2.0 software. The % of nuclei staining positive for FOXM1 was calculated per cell and averaged per slide to analyze FOXM1 protein expression and localization. […]

[4] = test system: canonical FOXM1 target genes; assay: Real-time PCR of canonical FOXM1 target genes in primary AML mononuclear cells treated ex vivo; assay type: cell-based, human; conditions: primary AML samples (n=5), 5 μM, 24 h
FLO-1 cells = assay: Chemosensitization of esophageal adenocarcinoma cells; assay type: cell-based; conditions: 24 hrs
Text: In all cases, total protein samples were obtained from cells immediately after treatment and analyzed for FOXM1, cleaved caspase-3 levels via immunoblotting, β-actin was used as internal loading control (n=3). […] In all cases, total protein samples were obtained from cells immediately after treatment and analyzed for FOXM1 and cleaved caspase-3 levels via immunoblotting, β-actin was used as internal loading control.

## O=C(Oc1cccc(-c2ccn(-c3nc(Nc4ccccc4)nc(N4CCOCC4)n3)n2)c1)c1ccco1 [STL001]
FOXM1 [1]; HCC-1143
  FOXM1 level in combination with cisplatin or doxorubicin: efficiently prevents cisplatin or doxorubicin chemotherapy induced FOXM1 upregulation
FOXM1 [1]; HCT-116 and HCT-FET
  FOXM1 levels in combination with 5′FU: remarkably decreased 5′FU-induced FOXM1 levels
FOXM1 [1]; OVCAR-8, ES-2, HCT-116, HCT-FET, TAM-R, HCC-1143, 22RV1, LNCaP, tested at 1, 5, 10 μM
  concentration giving reduction of cellular levels of FOXM1 protein: 1 µM
FOXM1 [1]; OVCAR-8, ES-2, 24 hrs
  FOXM1 protein levels in combination with doxorubicin: efficiently prevented FOXM1 activation
FOXM1 [1]; TAMR cells
  FOXM1 level in combination with tamoxifen: efficiently prevents tamoxifen induced FOXM1 upregulation
FOXM1 [1]; breast, colorectal, esophageal and ovarian cancer cells
  FOXM1 expression: demonstrably lowers FOXM1 expression
FOXM1 [1]; solid cancer cell lines
  efficiency in reducing cellular FOXM1 activity compared to STL427944: ~ 25 times
[2]
  sensitivity to cytotoxic effects of 5′FU in combination: significantly enhanced the sensitivity of colorectal cancer cells to cytotoxic effects of 5′FU therapy
FOXM1 [3]
  % of nuclei expressing FOXM1 after treatment: 29%
[4]
  expression of FOXM1 transcriptional targets AURKB and CDC25B: significantly suppressed expression
  expression of PLK1 and FOXM1: downregulation
FLO-1 cells
  sensitization to Cisplatin, 5′FU, Paclitaxel, Irinotecan: sensitizes esophageal adenocarcinoma cells (FLO-1) to conventional chemotherapeutic drugs
